# Read-outs that look alike come from different tables or passages of the source.
# Assays:
# [1] = test system: Tryptophan hydroxylase (TH); details: cited from earlier work; for effect of buffer on TH stability: tested at same pH and salt concentration; for effect on TH melting temperature: buffer of 20 mM HEPES/NaOH and 100 mM (NH4)2SO4 (pH 7.0)
# protein sample [2] = test: Protein stability screen: protein melting point temperature in MES/BTP buffer mixture; assay type: physicochemical
# Source text: In one embodiment, the present invention contemplates a method comprising a physiologic buffer mixture having a temperature-stable pKa to identify test compounds that increase stability of a sample protein by performing a protein melting point temperature screen. […] Although it is not necessary to understand the mechanism of an invention it is believed that a protein stability screen acts to define the bulk properties of a solution system (i.e. impact of pH, ionic strength, buffer etc.) and not just one specific component like most of the other screening conditions. The buffer system also acts as an internal control that simultaneously compares new and old conditions under identical conditions. Although commonly used previously, a urea stability test provides validation and verification of all testing parameters by comparative analysis with historical literature. DMSO screening allows for the nomination of conditions where protein compounds are usually insoluble (e.g., for example, drug binding studies) to identify the proper use of DMSO to solubilize these compounds without effecting the performance of the intended assay.
# See, FIG. 1. […] See, FIG. 3. […] See, FIG. 4. […] See, FIG. 5. […] See, FIG. 6.
# A metal ion screen was performed that compared the relative effects of five (5) different metal chloride ions, each at two different concentrations. See, FIG. 7. […] See, FIG. 8.
# In one embodiment, the kit instructions comprise the following steps: • i) pre-chill the RT-PCR plate at 4° C. for 15-30 minutes prior to the addition of reagents and/or protein sample to each of the wells. • ii) The dye vial and kit plates should be stored at −20° C. and away from light until the time of use. • iii) Add 5 μl of dye to 500 μl of protein sample. The dye to protein ratio can be modified to any particular protein. For example, smaller proteins or proteins with a small hydrophobic core may require an increased dye concentration. • iv) Transfer 5 μl of each solution from the well plate to a corresponding well of the RT-PCR plate. • v) Add 5 μl of the protein/dye mixture to each well of the RT-PCR plate (>0.5 mg/ml). • vi) Mix the solutions by pipetting up and down (˜5 times). • a) gently placing all solutions at the bottom of the avoids subsequent plate centrifugation. • vii) Seal the RT-PCR plate. • viii) Immediately load the TR-PCR plate into the instrument and begin the programmed heating schedule (approximate timeframe=62 minutes), for example: • a) Heat to 20 C • b) Ramp to 90 C in 0.5 C increments. • c) Ramp to 4 C with a two minute schedule. • ix) Upload stored data file to a designated website (e.g., for example, caymanchem.com/deltatm) and follow the instructions.
# [3] = Kipp et al., cited from earlier work; for ΔpH=pH(60° C.)−pH(25° C.): 0.1 M, initial pH=7 (25° C.), PHTEMP simulation
# Dwarf27 protein = molecular target: T1, Dwarf27 protein (Oryza sativa subsp. japonica, UniProt C7AU21); test: Dwarf27 protein stability screen in MES-BTP buffer mixture (melting point temperature); assay type: physicochemical; details: for effect on protein Tm as compared to the control Tm: Dwarf27 (D27), concentration screen, FIG. 16; for concentration for customized buffer system for Dwarf27: MES-BTP, Spyro Orange
# T1 sequence (C7AU21 41-278): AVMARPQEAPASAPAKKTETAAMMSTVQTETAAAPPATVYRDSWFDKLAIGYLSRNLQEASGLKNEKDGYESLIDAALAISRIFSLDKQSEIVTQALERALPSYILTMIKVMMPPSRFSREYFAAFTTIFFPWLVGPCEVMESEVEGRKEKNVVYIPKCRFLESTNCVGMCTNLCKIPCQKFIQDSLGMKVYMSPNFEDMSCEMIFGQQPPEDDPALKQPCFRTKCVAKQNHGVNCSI
# Source text: Many methods have been used to describe protein stability. A primary method of early literature was the urea degradation study. As a point of comparative reference to this early literature, the present invention maintains a concentration dependent measure of protein stability relative to urea concentration. […] See, FIG. 16A. […] See, FIG. 16B.
# See, FIG. 17A. In one embodiment, the present invention contemplates a multi-component single buffer mixture characterized by: i) a low delta specific heat (CP); ii) low buffer-buffer interactions; iii) low divalent cation chelation; and iv) buffering capacity over a wide pH range. In one embodiment, the multi-component single buffer mixture comprises MES and BTP. See, FIG. 17B. […] The optimal pH for Dwarf27 protein was determined by other methods to be pH 7.5 (data not shown).
# Data was collected using a Spyro Orange fluorophore.
# The integrated analysis compared the differences in inflection points of these protein melting temperature point screens to identify Dwarf27 protein melting point profiles. See, FIG. 19.
# protein sample [4] = test: Cryoprotection protein melting point temperature screen; assay type: physicochemical
# Procedure: For example, a protein melting point temperature screen was performed using sucrose at several different concentrations. […] See, FIG. 10. […] See, FIG. 11. […] See, FIG. 12.
# Conversely, the present method can also identify compounds that might not be expected to provide quality cryoprotectant effects. For example, glycerol is widely accepted to provide cryoprotection. […] See, FIG. 13. […] This is opposite to what one would expect for an indicative parameter to identify a quality cryoprotectant. […] Although it is not necessary to understand the mechanism of an invention, it is believed that the use of such an improved cryoprotectant improves stability for nearly two years. […] See, FIG. 14.
# [5] = Hoefmeister Series screen, higher Tm
# [6] = cryoprotection screen, dose response
compound,measurement,setting,value
"O=S(=O)(O)CCCN1CCOCC1 [MOPS, 3-(N-morpholino)propanesulfonic acid]",effect of buffer on TH stability,[1],no significant effect on stability
Cl.N [ammonium chloride],effect on protein stability (Tm),protein sample [2]; [5],improved the stability of the protein
O=S(=O)(O)O [sulfuric acid],ΔpH=pH(60° C.)−pH(25° C.),[3],approximately −0.4
same,ΔH zero 1,[3],-12 kcal/mol
same,ΔH zero 2,[3],-5.4 kcal/mol
N.N.O=S(=O)(O)O [ammonium sulphate],effect on protein Tm as compared to the control Tm,Dwarf27 protein,concentration-dependent increase in protein Tm
NC(N)=O [urea],effect on protein,"protein sample [2]; MES/BTP, urea concentrations in excess of 1.75 M, no melting point determinable",complete protein denaturation
same,effect on protein melting point temperature,"protein sample [2]; MES/BTP, urea under 0.5 M or between 0.75-1.75 M",lower protein melting point temperatures
same,effect on protein Tm as compared to the control Tm,Dwarf27 protein,generalized decreases in protein Tm
O.O.O.O.O.O.O.O.O.O.O=S(=O)([O-])[O-].[Na+].[Na+] [sodium sulphate decahydrate],effect on protein stability (Tm),protein sample [2],improved the stability of the protein
[F-].[Na+] [sodium fluoride],effect on protein stability (Tm),protein sample [2]; [5],improved the stability of the protein
"C[S+](C)[O-] [DMSO, dimethyl sulfoxide]",effect on protein melting point temperature,"protein sample [2]; buffer mixture of MES and BTP, concentration screen",consistently increased protein melting point temperatures
same,concentration for customized buffer system for Dwarf27,Dwarf27 protein,7%
Cl.N=C(N)N [guanidinium hydrochloride],effect on protein stability (Tm),protein sample [2]; [5],improved the stability of the protein
N#C[S-].[Na+] [sodium thiocynate],effect on protein stability (Tm),protein sample [2]; [5],improved the stability of the protein
OCC(CO)(CO)NCCCNC(CO)(CO)CO [Bis Tris Propane],effect of buffer on TH stability,[1],no significant effect on stability
CCN(CC)CC [triethylamine],ΔpH=pH(60° C.)−pH(25° C.),[3],approximately −0.8
same,ΔH zero (enthalpy of acid dissociation),[3],10.4 kcal/mol
[I-].[Na+] [sodium iodide],effect on protein stability (Tm),protein sample [2]; [5],improved the stability of the protein
O.O.[Ca+2].[Cl-].[Cl-] [calcium chloride dihydrate],effect on protein stability (Tm),protein sample [2],improved the stability of the protein
N[C@@H](CCC(=O)O)C(=O)O [glutamic acid],concentration for customized buffer system for Dwarf27,Dwarf27 protein,25 mM
[Cl-].[K+] [potassium chloride],effect on protein stability (Tm),protein sample [2]; [5],improved the stability of the protein
"O=S(=O)(O)CCN1CCN(CCS(=O)(=O)O)CC1 [PIPES, piperazine-N,N′-bis(2-ethanesulfonic acid]",concentration for customized buffer system for Dwarf27,Dwarf27 protein,100 mM
OC[C@@H](O)[C@H](O)[C@@H](O)CO [xylitol],effect on protein melting temperature in comparison to sucrose or trehalose,protein sample [4]; e.g. 30%,raised the protein melting temperature a full degree
O=C([O-])CC(O)(CC(=O)[O-])C(=O)[O-].[Na+].[Na+].[Na+] [sodium citrate tribasic],effect on protein stability (Tm),protein sample [2],improved the stability of the protein
OC[C@H]1O[C@@](CO)(O[C@H]2O[C@H](CO)[C@@H](O)[C@H](O)[C@H]2O)[C@@H](O)[C@@H]1O [sucrose],effect on protein melting point temperature,protein sample [4]; 25% sucrose and 30% sucrose,raised the melting point temperature
same,effect on TH melting temperature,[1],increased melting temperature
O=C([O-])C(O)C(O)C(=O)[O-].[Na+].[Na+] (stereo not drawn) [sodium tartrate dibasic],effect on protein stability (Tm),protein sample [2]; [5],improved the stability of the protein
OCC(O)CO [glycerol],effect on protein melting point temperature,protein sample [4]; [6],dose-dependent decrease in protein melting point temperature
same,effect on TH melting temperature,[1],increased melting temperature
same,effect on protein melting point temperature,"protein sample [2]; MES/BTP, glycerol concentrations above 10%",raised the protein melting temperature
same,effect on protein melting point temperature,"protein sample [2]; MES/BTP, glycerol concentrations below 10%",lowered the protein melting point temperature
same,concentration for customized buffer system for Dwarf27,Dwarf27 protein,2.5%
OC[C@@H](O)[C@@H](O)[C@H](O)[C@@H](O)CO [sorbitol],effect on TH melting temperature,[1],increased melting temperature
[Cl-].[Li+] [lithium chloride],effect on protein stability (Tm),protein sample [2]; [5],improved the stability of the protein
CC(=O)O [acetic acid],ΔpH=pH(60° C.)−pH(25° C.),[3],approximately 0
same,ΔH zero (enthalpy of acid dissociation),[3],-0.1 kcal/mol
O=P([O-])([O-])O.[Na+].[Na+] [sodium phosphate dibasic],effect on protein stability (Tm),protein sample [2]; [5],improved the stability of the protein
same,concentration for customized buffer system for Dwarf27,Dwarf27 protein,50 mM
OCCO [ethylene glycol],effect on protein melting point temperature,protein sample [4]; [6],dose-dependent decrease in protein melting point temperatures
O=[N+]([O-])[O-].[Na+] [sodium nitrate],effect on protein stability (Tm),protein sample [2]; [5],improved the stability of the protein
CC(=O)[O-].O.O.O.[Na+] [sodium acetate trihydrate],effect on protein stability (Tm),protein sample [2],improved the stability of the protein
"O=S(=O)(O)CCN1CCN(CCO)CC1 [HEPES, 4-(2-hydroxyethyl)-1-piperazine ethanesulfonic acid]",effect of buffer on TH stability,[1],no significant effect on stability
[Cl][Co][Cl] [cobalt chloride],concentration for customized buffer system for Dwarf27,Dwarf27 protein,0.005 to 0.025 mM
OC[C@H]1O[C@H](O[C@H]2O[C@H](CO)[C@@H](O)[C@H](O)[C@H]2O)[C@H](O)[C@@H](O)[C@@H]1O [trehalose],increase in protein melting temperature relative to sucrose,protein sample [4]; cryoprotection screen,more pronounced than sucrose
